Test results: patent publication US20060051526A1, “Process for producing cellulose acylate film” (Fuji Photo Film Co., Ltd., priority 2002, published 2006)

How the values were obtained:
Assay type in all cases: physicochemical
[1] = Solubility test of the additive alone in dichloromethane/methanol mixed solvent (visual, after 4 days)
[2] = Measurement of micro heat of solution (multi-purpose calorimeter MPC-110); details: for Degree of stabilization: Table 15; for Heat of solution ΔH0: solvent alone, 26.0° C.
Procedure: (2 Measurement of Micro Heat of Solution)
The heat of solution (dissolution enthalpy ΔH) of functional additives was measured as follows, using a multi-purpose calorimeter (MPC-110) manufactured by Tokyo Rikou as a micro heat of solution measuring instrument.
1. Solvent liquids and concentrated solutions were prepared beforehand in 1 L bottles.
2. Preparation of ampoule tubes
(1) Additives (powdered solid) were ground by a mortar and the granules were made uniform.
(2) A required amount (252 mg) of the additive to be measured was weighed into an ampoule tube for measurement of the micro heat of solution.
(3) The neck of the ampoule tube was heated sufficiently by a gas burner so as to seal the ampoule tube.
3. 50 g of the prepared solvent liquid or the concentrated solution was weighed into a measuring vessel. This amount was selected as an amount sufficient to immerse the ampoule tube in the solvent liquid when set in the measuring instrument.
4. The ampoule tube was set in the measuring instrument, which was equipped with an ampoule sealing mechanism, the measuring vessel was hermetically sealed with the ampoule sealing mechanism after confirming that the ampoule tube was immersed in the solvent liquid, it was placed in a constant temperature bath (26.0° C.), and stirring was started.
5. After confirming that the measuring instrument placed in the constant temperature bath had reached equilibrium temperature (about 8 to 12 hours) the ampoule tube was broken so as to mix the additive with the solvent liquid or the concentrated solution.
6. The total amount of heat generated was recorded.
7. The Joule's heat generated was measured by applying a known voltage to the measurement system for an appropriate time, and the recorded chart area for each measurement cell was calibrated using a known amount of heat.
8. The heat of solution of the sample was calculated from the Joule's heat and the measured sample area.
Shown in Table 11 are the solvent composition (wt %) and the solids composition (parts by weight) of the mother liquor when measuring the heat of solution, the type of retardation control agent sealed in the ampoule tube (Example Compounds I-(51) or I-(2)), and the results of measurement of the heat of solution.
The identification symbols of elements constituting the system are as follows: a denotes triacetylcellulose/plasticizer, b denotes triacetylcellulose, and c denotes plasticizer. For example, 2-87a denotes that the retardation control agent is the Example Compound I-(2), the solvent composition (wt %) is dichloromethane/methanol=87/13, and the solids constituting the system are triacetylcellulose and the plasticizer.
The heat of solution ΔH0 denotes the heat of solution (heat absorption) generated when there is no solid in the system (before breaking the ampoule tube) and the retardation control agent is dissolved in a solvent alone. […] The solids concentration of the system when saturation starts is defined as the saturation heat of solution solids concentration (wt %).
In all cases, when the solids concentration of the system is increased, the heat of solution either remains unchanged from that at a solids concentration of 0 wt % (the saturation heat of solution solids concentration is 0) or decreases and becomes saturated. […] This degree of stabilization is expressed as ΔH0−ΔHs, which is the decrease in the heat of solution.

[3] = Solubility test of the additive alone in dichloromethane/methanol mixed solvent (visual, after 4 days); details: for Solubility S0 (solids weight concentration at the dissolution limit): CH2Cl2/CH3OH 87/13
Procedure: The solubility of the functional additives was measured as follows.
1. Solutions were prepared by adjusting each concentration in a 50 cc screw cap bottle.
2. Allowed to stand at room temperature for 4 days. Here, the results of the solubility changed between 1 day and 4 days in some cases, and evaluation of the solubility was carried out after 4 days as a time when equilibrium was reached.
3. Samples were prepared in the same manner at other temperatures (20° C., 35° C.), and the solubility after allowing to stand for 4 days was visually inspected.
Predetermined amounts of Example Compounds I-(51) and I-(2) were weighed into a mixed solvent of dichloromethane and methanol, and the solubility was measured by changing the mixing ratio of the organic solvents.
The solubility (solids weight concentration at the dissolution limit was calculated as (C1+C2)/2 when the concentration limit at which it could be dissolved was C1 and the concentration limit at which it could not be dissolved was C2) of the retardation control agent in a mixed solvent having an initial methylene chloride/methanol composition ratio of 87/13 was defined as S0, and the solubility of the retardation control agent when the solvent composition changed, during drying, to 74/26 where the methanol wt % was the maximum was defined as S1. The temperature at which the solubility was measured is denoted by the figure in brackets.

[4] = initial 87/13 vs 74/26, at any of 25° C., 20° C., 35° C.
[5] = 87/13, solids a: triacetylcellulose/plasticizer
[6] = 87/13, solids b: triacetylcellulose only
[7] = 87/13, solids c: plasticizer only

Difference S0 − S1 ([1]; 20° C., 87/13 vs 74/26): 15 wt %
Difference S0 − S1 ([1]; 20° C., 92/8 vs 91/9): 0 wt %
Ratio S1/S0 ([1]; 20° C., 92/8 vs 91/9): 1.000
Solubility S1 (solids weight concentration at the dissolution limit) ([1]; 20° C., CH2Cl2/CH3OH 74/26): 12.5 wt %
Solubility S1 (solids weight concentration at the dissolution limit) ([1]; 20° C., CH2Cl2/CH3OH 91/9): 27.5 wt %
Solubility S0 (solids weight concentration at the dissolution limit) ([1]; 20° C., CH2Cl2/CH3OH 92/8): 27.5 wt %
Difference S0 − S1 ([1]; 25° C., 87/13 vs 74/26): 20 wt %
Difference S0 − S1 ([1]; 25° C., 92/8 vs 91/9): 0 wt %
Ratio S1/S0 ([1]; 25° C., 92/8 vs 91/9): 1.000
Solubility S1 (solids weight concentration at the dissolution limit) ([1]; 25° C., CH2Cl2/CH3OH 74/26): 17.5 wt %
Solubility S0 (solids weight concentration at the dissolution limit) ([1]; 25° C., CH2Cl2/CH3OH 87/13): 37.5 wt %
Solubility S1 (solids weight concentration at the dissolution limit) ([1]; 25° C., CH2Cl2/CH3OH 91/9): 37.5 wt %
Solubility S0 (solids weight concentration at the dissolution limit) ([1]; 25° C., CH2Cl2/CH3OH 92/8): 37.5 wt %
Difference S0 − S1 ([1]; 35° C., 92/8 vs 91/9): 0 wt %
Ratio S1/S0 ([1]; 35° C., 92/8 vs 91/9): 1.000
Solubility S1 (solids weight concentration at the dissolution limit) ([1]; 35° C., CH2Cl2/CH3OH 91/9): 27.5 wt %
Solubility S0 (solids weight concentration at the dissolution limit) ([1]; 35° C., CH2Cl2/CH3OH 92/8): 27.5 wt %
Difference in solubility S0−S1 [1, 4]: ≥ 15 wt %
Ratio S1/S0 of the solubility [1, 4]: less than 0.5
Degree of stabilization (ΔH0 − ΔHs) ([2]; 50/50, solids a): 0 kcal/mol
Saturation heat of solution solids concentration ([2]; 50/50, solids a): 0 wt %
Heat of solution ΔHs ([2]; 50/50, solids a: triacetylcellulose/plasticizer): 4.25 kcal/mol
Degree of stabilization (ΔH0 − ΔHs) ([2]; 74/26, solids a): 0 kcal/mol
Saturation heat of solution solids concentration ([2]; 74/26, solids a): 0 wt %
Heat of solution ΔHs ([2]; 74/26, solids a: triacetylcellulose/plasticizer): 4.56 kcal/mol
Degree of stabilization (ΔH0 − ΔHs) [2, 5]: 0.5 kcal/mol
Saturation heat of solution solids concentration [2, 5]: 5 wt %
Heat of solution ΔHs ([2]; 87/13, solids a: triacetylcellulose/plasticizer (TPP/BDP)): 4.35 kcal/mol
Degree of stabilization (ΔH0 − ΔHs) [2, 6]: 0.6 kcal/mol
Heat of solution ΔHs [2, 6]: 4.25 kcal/mol
Saturation heat of solution solids concentration [2, 6]: 5 wt %
Degree of stabilization (ΔH0 − ΔHs) [2, 7]: 0 kcal/mol
Heat of solution ΔHs [2, 7]: 4.85 kcal/mol
Saturation heat of solution solids concentration [2, 7]: 0 wt %
Degree of stabilization (ΔH0 − ΔHs) ([2]; 92/8, solids a): 0.8 kcal/mol
Saturation heat of solution solids concentration ([2]; 92/8, solids a): 7 wt %
Heat of solution ΔHs ([2]; 92/8, solids a: triacetylcellulose/plasticizer): 4.23 kcal/mol
Degree of stabilization (ΔH0 − ΔHs) ([2]; 100/0, solids a): 1.48 kcal/mol
Saturation heat of solution solids concentration ([2]; 100/0, solids a): 10 wt %
Heat of solution ΔHs ([2]; 100/0, solids a: triacetylcellulose/plasticizer): 3.79 kcal/mol
Degree of stabilization ([2]; dope Table 12, solvent composition 87/13): 0.50 kcal/mol
Degree of stabilization ([2]; dope Table 13, solvent composition 92/8): 0.80 kcal/mol
Degree of stabilization ([2]; dope Table 14, solvent composition 74/26): 0 kcal/mol
Stabilization by solids in the system (in words) ([2]; case c: only the plasticizer present in the system): not stabilized
Heat of solution ΔH0 ([2]; dichloromethane/methanol 50/50 wt %): 4.25 kcal/mol
Heat of solution ΔH0 ([2]; dichloromethane/methanol 74/26 wt %): 4.56 kcal/mol
Heat of solution ΔH0 ([2]; dichloromethane/methanol 87/13 wt %): 4.85 kcal/mol
Heat of solution ΔH0 ([2]; dichloromethane/methanol 92/8 wt %): 5.03 kcal/mol
Heat of solution ΔH0 ([2]; dichloromethane/methanol 100/0 wt %): 5.27 kcal/mol
Ratio S1/S0 ([3]; 20° C., 87/13 vs 74/26): 0.455
Solubility S0 (solids weight concentration at the dissolution limit) ([3]; 20° C.): 27.5 wt %
Ratio S1/S0 ([3]; 25° C., 87/13 vs 74/26): 0.467
Difference S0 − S1 ([3]; 35° C., 87/13 vs 74/26): 15 wt %
Ratio S1/S0 ([3]; 35° C., 87/13 vs 74/26): 0.455
Solubility S1 (solids weight concentration at the dissolution limit) ([3]; 35° C., CH2Cl2/CH3OH 74/26): 12.5 wt %
Solubility S0 (solids weight concentration at the dissolution limit) ([3]; 35° C.): 27.5 wt %
SMILES: Cc1cccc(Nc2nc(Nc3cccc(C)c3)nc(Nc3cccc(C)c3)n2)c1 [Example Compound I-(51)]
